One may read the EC50 as the concentration giving half of the maximal effect. One may read the AC50 as the concentration at which the activity in the assay is half-maximal. Broadly, the IC50 is the concentration that inhibits the measured activity by half.

The source made the active and inactive calls.

Assay [1] has as its target Voltage-dependent T-type calcium channel subunit alpha-1H (Homo sapiens, UniProt O95180). The class given is functional.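 Also: channel activity triggered by adding a high calcium stimulation buffer.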
Assay [2] concerns the target T1, Cytochrome P450 3A4 (Homo sapiens, UniProt P08684). The following applies: Potency.
The subject of assay [3] is INS1. The assay can be described thus: beta cell apoptosis inhibitors, cytokine rescue, dose response, luminescence, retest (AID 449756).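 Also: cell death triggered by IL-1 beta plus TNF-alpha plus IFN-gamma mixture; protective hits raise ATP signal compared with cytokine alone wells.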 Type of assay: functional, cell-based. The following applies: Rattus norvegicus.
Assay [4] is described as follows: cytotoxicity in HEK-293T cells, dose response, cytotoxicity control for BCR NF-kB inhibitor project, luminescence, B-cell screen hits (AID 489021).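 Also: HEK-293T cells carrying an NF-kB luciferase reporter; cells exposed to compound for about 14 hours before viability readout.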 Type of assay: functional, cell-based.
Assay [5] deals with T2, Calpain-2 catalytic subunit (Sus scrofa, UniProt P43367).
T2 sequence (P43367 whole entry): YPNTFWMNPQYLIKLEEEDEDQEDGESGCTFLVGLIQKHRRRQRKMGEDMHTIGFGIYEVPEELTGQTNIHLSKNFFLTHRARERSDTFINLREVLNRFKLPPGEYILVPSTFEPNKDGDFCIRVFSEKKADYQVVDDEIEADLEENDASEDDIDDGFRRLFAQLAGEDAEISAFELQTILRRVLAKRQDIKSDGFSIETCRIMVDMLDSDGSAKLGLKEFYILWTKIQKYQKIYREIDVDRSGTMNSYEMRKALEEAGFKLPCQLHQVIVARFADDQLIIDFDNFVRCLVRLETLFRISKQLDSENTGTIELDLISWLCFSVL
Kind of assay: pig calpain II inhibitor potency, dose response, biochemical, fluorogenic peptide substrate (AID 1420). The class given is functional.

For assay [6], the target named is T3, Aminopeptidase N (Plasmodium falciparum FcB1/Columbia, UniProt O96935).
T3 sequence (O96935 whole entry): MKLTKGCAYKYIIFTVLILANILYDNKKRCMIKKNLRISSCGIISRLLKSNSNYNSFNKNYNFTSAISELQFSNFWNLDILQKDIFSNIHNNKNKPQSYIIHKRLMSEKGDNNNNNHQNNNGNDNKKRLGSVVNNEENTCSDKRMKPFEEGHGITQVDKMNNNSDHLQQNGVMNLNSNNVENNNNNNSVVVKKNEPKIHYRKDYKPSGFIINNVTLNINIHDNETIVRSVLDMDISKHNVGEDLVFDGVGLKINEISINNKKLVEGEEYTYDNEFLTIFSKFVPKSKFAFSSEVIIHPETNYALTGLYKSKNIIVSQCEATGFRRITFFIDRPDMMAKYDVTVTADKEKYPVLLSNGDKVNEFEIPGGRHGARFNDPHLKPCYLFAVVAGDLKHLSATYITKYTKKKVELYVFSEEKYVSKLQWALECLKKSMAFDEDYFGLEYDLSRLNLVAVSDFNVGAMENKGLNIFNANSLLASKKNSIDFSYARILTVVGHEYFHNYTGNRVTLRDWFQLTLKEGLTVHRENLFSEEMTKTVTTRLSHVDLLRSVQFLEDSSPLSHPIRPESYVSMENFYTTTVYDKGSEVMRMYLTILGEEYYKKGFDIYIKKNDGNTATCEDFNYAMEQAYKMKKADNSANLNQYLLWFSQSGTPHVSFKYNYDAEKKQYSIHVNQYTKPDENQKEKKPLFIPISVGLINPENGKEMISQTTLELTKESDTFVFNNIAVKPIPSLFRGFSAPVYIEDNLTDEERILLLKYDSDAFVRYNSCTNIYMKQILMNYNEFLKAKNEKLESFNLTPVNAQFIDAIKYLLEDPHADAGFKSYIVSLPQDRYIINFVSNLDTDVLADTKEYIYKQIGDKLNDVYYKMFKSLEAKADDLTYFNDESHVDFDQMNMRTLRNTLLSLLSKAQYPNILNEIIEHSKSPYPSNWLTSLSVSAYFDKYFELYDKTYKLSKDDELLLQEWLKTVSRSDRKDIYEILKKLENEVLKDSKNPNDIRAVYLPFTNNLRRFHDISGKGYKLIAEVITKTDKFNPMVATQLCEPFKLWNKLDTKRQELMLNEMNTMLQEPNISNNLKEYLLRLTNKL
The assay can be described thus: P. falciparum M1AAP inhibitors, biochemical, fluorogenic H-Leu-NHMec substrate, 1536-well (AID 1445). Also on record: species or system Plasmodium falciparum 3D7, 3D7.

In assay [7] the target is T4, Leucine aminopeptidase (Plasmodium falciparum 3D7, UniProt Q8IL11).
T4 sequence (Q8IL11 whole entry): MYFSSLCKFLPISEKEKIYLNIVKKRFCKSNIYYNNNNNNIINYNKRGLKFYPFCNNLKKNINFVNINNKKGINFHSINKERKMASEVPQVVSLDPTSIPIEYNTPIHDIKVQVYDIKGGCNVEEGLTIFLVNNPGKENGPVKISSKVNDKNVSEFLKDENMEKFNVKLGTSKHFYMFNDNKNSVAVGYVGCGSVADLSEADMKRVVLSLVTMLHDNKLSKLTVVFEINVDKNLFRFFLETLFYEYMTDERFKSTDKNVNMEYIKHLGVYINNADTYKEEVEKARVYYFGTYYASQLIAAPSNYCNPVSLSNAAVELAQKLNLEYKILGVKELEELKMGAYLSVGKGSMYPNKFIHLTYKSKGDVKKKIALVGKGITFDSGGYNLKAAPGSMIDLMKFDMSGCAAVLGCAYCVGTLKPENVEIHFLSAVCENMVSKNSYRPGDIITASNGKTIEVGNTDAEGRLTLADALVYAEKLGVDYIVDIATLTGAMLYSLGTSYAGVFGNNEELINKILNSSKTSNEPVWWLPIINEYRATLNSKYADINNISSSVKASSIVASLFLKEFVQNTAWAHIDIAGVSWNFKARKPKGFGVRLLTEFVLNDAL
Kind of assay: P. falciparum M17LAP inhibitors, primary screen, biochemical, fluorogenic H-Leu-NHMec substrate, 1536-well (AID 1619). Type of assay: functional.

The nature of assay [8]: cells. Type of assay: functional, cell-based.
Assay [9] in a line: cells. The class given is functional, cell-based. This is another data set of the same source.
A short description of assay [10]: C. albicans growth with fluconazole, confirmation, fluorescence, retest (AID 2467). Type of assay: functional, cell-based.
Assay [11] is described as follows: NIH-3T3 fibroblast cytotoxicity, dose response, cytotoxicity control, cell-based, fluorescence, Alamar Blue, secondary assay (AID 2327).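 Also: NIH-3T3 mouse fibroblasts cultured with fluconazole at 8 µg/mL.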 Type of assay: functional. A general note: Resazurin is reduced to fluorescent resorufin, in cell work by metabolically active cells.
The target of assay [12] is T1, Cytochrome P450 3A4.

T1 sequence (P08684 whole entry): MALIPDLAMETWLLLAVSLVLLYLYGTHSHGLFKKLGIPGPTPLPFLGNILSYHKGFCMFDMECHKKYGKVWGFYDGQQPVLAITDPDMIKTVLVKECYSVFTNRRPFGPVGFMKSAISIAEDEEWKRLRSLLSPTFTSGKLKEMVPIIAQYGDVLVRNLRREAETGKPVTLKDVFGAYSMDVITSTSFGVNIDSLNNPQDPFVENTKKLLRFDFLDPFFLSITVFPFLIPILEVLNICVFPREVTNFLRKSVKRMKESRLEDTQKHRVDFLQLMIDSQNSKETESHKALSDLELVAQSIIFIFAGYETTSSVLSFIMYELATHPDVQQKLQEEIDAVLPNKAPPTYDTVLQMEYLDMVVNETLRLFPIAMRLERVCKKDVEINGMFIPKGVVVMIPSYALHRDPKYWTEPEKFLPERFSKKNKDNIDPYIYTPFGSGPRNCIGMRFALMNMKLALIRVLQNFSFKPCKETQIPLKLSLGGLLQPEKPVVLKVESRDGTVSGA
Voltage-dependent T-type calcium channel subunit alpha-1H, sequence (O95180 whole entry): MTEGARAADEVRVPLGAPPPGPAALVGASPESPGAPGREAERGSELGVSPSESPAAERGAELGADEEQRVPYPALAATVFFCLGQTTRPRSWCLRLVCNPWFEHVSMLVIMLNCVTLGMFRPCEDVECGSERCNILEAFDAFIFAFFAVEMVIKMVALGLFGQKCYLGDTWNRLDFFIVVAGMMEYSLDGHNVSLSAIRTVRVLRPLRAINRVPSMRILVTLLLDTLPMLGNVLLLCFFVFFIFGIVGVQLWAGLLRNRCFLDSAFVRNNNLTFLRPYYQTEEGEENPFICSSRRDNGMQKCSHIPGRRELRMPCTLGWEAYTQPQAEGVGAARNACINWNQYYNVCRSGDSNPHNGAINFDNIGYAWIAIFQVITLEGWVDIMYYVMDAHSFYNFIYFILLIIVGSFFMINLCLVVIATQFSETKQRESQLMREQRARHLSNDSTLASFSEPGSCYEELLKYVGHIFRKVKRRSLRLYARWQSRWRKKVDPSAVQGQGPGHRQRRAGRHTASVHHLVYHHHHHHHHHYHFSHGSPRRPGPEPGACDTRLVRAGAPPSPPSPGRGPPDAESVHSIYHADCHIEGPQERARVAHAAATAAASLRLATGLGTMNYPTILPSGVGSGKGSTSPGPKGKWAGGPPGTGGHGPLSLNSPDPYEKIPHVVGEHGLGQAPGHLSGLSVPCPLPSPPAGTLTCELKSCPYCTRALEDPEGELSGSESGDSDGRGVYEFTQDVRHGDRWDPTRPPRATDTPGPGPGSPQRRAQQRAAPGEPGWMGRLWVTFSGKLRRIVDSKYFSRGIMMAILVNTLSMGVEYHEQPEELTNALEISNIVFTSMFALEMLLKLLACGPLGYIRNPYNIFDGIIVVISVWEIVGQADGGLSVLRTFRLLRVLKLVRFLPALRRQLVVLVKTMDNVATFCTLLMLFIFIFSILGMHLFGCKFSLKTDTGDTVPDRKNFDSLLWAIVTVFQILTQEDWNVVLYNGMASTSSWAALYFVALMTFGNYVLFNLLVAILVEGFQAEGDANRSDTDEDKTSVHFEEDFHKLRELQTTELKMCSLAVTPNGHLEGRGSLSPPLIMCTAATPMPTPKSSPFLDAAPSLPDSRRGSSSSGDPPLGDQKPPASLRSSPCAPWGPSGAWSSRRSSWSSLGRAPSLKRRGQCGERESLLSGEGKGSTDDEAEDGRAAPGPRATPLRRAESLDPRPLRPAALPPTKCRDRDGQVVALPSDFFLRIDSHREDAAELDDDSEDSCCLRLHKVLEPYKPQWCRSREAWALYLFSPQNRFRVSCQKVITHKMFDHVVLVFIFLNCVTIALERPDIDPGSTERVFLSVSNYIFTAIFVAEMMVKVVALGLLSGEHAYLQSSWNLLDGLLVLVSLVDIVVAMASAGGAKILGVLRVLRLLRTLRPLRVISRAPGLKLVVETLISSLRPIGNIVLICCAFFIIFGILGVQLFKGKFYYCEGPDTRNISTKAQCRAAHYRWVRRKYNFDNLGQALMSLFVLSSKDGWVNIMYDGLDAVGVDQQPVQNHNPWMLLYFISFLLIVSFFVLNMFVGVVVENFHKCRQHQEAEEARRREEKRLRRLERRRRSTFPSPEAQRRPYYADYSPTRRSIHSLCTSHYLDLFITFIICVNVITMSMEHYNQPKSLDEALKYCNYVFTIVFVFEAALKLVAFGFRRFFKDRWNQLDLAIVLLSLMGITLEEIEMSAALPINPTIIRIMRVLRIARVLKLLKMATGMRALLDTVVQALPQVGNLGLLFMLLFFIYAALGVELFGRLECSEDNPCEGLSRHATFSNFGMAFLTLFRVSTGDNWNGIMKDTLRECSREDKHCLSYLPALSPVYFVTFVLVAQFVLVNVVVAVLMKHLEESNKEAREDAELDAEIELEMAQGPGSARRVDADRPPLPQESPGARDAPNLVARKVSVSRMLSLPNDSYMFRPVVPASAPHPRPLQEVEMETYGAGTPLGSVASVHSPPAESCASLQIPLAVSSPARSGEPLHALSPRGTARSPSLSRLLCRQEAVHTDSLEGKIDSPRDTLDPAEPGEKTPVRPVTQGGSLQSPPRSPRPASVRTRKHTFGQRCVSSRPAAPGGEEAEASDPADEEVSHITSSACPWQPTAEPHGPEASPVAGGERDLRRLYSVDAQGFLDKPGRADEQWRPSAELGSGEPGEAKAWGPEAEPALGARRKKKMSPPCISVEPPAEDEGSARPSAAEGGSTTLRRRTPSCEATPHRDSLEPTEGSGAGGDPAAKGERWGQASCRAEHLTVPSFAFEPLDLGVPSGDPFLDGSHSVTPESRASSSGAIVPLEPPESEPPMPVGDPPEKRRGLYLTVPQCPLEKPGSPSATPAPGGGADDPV

For `Cn1cccc1Cc1nnc(SCC(=O)Nc2ccccc2)n1-c1ccc(F)cc1`, the EC50 in [1] was 2.44 µM (active). `C=CC(C1=CC(=O)C(OC)=C(OC)C1=O)c1ccccc1` (stereo not drawn): in assay [2], the AC50 was 15.8 µM (inconclusive). For the compound `Cc1ccc(N(C(=O)Cc2c[nH]c3ccccc23)C(C(=O)NC2CCCCC2)c2ccco2)cc1` (stereo not drawn), the EC50 in assay [1] was 10.2 µM (active).

Take `C/C=C/C1Oc2ccc(OC)cc2N2C(=O)C(C)C(OCOC)C12` (stereo not drawn): the half-maximal activity concentration (AC50) in assay [2] was 3.98 µM (inconclusive).

On to `CCC1=C(OC(=O)N(CC)CC)N2C(=O)O/C(=N\CCOC)[C@]2(C)[C@H]2C1=CC[C@H]1C(=O)NC(=O)[C@H]12`, for which, in assay [2], the AC50 was 10 µM (inconclusive).

As for `Cc1ccc(NC(=O)c2c(-c3c(F)cccc3Cl)noc2C)cc1F`, the AC50 in assay [3] was > 260 µM (inactive). Further, the half-maximal effective concentration (EC50) in assay [1] was 5.69 µM (active). Turning to `CCCn1c(C)nc2c(N(CCN(C)C)Cc3ccccc3)nc(C)nc21`, the AC50 in assay [2] was 12.6 µM (inconclusive). On to `CCCC(=O)Nc1ccc(Sc2ccc([N+](=O)[O-])cc2)cc1`, for which the IC50 in assay [4] is 77.8 µM (inactive); in [5] it was 10.7 µM (not active). Take `CCN1C(=O)c2cccc3c(S(=O)(=O)Nc4ccccc4)ccc1c23`: in assay [4], the IC50 was > 80 µM (inactive). `Cc1[nH]c2ccccc2c1SCC(=O)N1CCCc2ccccc21`: the EC50 in [1] was 6.34 µM (active). Turning to `CC(C)C[C@H](NC(=O)c1[nH]cnc1C(=O)NC1CCN(C(=O)OC(C)(C)C)CC1)C(=O)OC(C)(C)C`, the half-inhibitory concentration (IC50) in assay [6] was 63.9 µM (active). Regarding `O=C(O)C/C(=C\c1ccc(Cl)cc1)c1nc2ccccc2o1`, the IC50 in [7] was 105 µM (active); in [6], 33.9 µM (active). As to `CCC(=O)N1c2ccccc2C(N(C(C)=O)c2ccccc2)CC1C` (stereo not drawn), the EC50 in assay [8] and in [9] was > 350 µM (not active) throughout. Further, in assay [4], the IC50 is > 80 µM (inactive).

For `O=c1oc2ccccc2n1CSc1nc2ccccc2s1`, in assay [1], the EC50 was 550 µM (active). As to `Cc1c(O)c(CN2CCCCC2)cc2c3c(c(=O)oc12)CCC3`, the half-inhibitory concentration (IC50) in [6] is 37.5 µM (active). Regarding `CCOP(=O)(OCC)c1nc(-c2cccc([N+](=O)[O-])c2)oc1N1CCCCC1`, the IC50 in [6] was 50.1 µM (active).

As for `CC(C)C(c1nnnn1Cc1ccccc1)N(Cc1ccco1)Cc1cccs1` (stereo not drawn), the IC50 in assay [4] was > 80 µM (inactive).

As to `CCOC(=O)C1=C(Nc2ccc(OC)cc2)S/C(=C\c2ccc(OCC(=O)O)c(OCC)c2)C1=O`, the half-inhibitory concentration (IC50) in assay [7] is 21.3 µM (active); in assay [6], 36.3 µM (active). For `CC(=O)c1cccc(S(=O)(=O)Nc2cc(C(F)(F)F)ccc2N2CCOCC2)c1`, the IC50 in assay [4] was > 80 µM (inactive). Consider `Nc1nonc1C(=O)N/N=C/c1cc(Br)ccc1O`, for which the EC50 in assay [8] was > 350 µM (not active); in [10] it was 0.782 µM (active); in assay [9], 108 µM (active); in assay [11] it was > 160 µM (inactive). In assay [6], the IC50 was 3.45 µM (active). Take `C=CCNC(=O)c1cc([N+](=O)[O-])cc2c(=O)[nH]c(Nc3ccc(Cl)c(Cl)c3)nc12`: the concentration at half-maximal activity (AC50) in assay [2] is 10 µM (inconclusive). On to `Clc1ccc2c(c1)C(N1CCNCC1)=Nc1ccccc1O2` [AMOXAPINE], for which the values for the concentration at half-maximal activity (AC50) in assay [12] and in [2] were 15.8 µM (inconclusive) and 10 µM (inconclusive), respectively.

(Values after ChEMBL document CHEMBL1201862, “PubChem BioAssay data set” (2004).)
